Like-named read-outs stand apart in the source and are kept apart here. One block for each molecule: values may come before it.
Legend:
Assay type in all cases: physicochemical
[1] = Gravimetric vapor sorption (GVS); details: for weight gain upon exposure to moisture (moisture adsorbed on the surface): adsorption-desorption isotherm
Method: (§1) Ibuprofen was characterized to determine the parameters necessary to administer a therapeutically effective amount using an inhalation delivery system. The methodology included particle size determination (PSD); powdered x-ray crystallization diffraction (PXRD); and gravimetric vapor sorption (GVS).
(§2) Following micronization, Particle Size Distribution (PSD) analysis was performed by wet dispersion. […] FIGS. 8A and 8B illustrate the SEM imagery of micronized ibuprofen at a 10 μm scale for Batch 1 and Batch 2, respectively. FIGS. 9A and 9B illustrate the SEM imagery of micronized ibuprofen at a 2 μm scale for Batch 1 and Batch 2, respectively. FIGS. 10A and 10B illustrate the PXRD of micronized ibuprofen for Batch 1 and Batch 2, respectively. Table 7 contains the data for moisture content of micronized ibuprofen as determined by simultaneous thermal analyzer (STA), which tests both by DTA (Differential Temperature Analysis) and TG (Thermogravimetry). FIGS. 11A, 11B, and 11C illustrate the hygroscopicity as determined GVS for coarse ibuprofen (FIG. 11A), Batch 1 (FIG. 11B), and Batch 2 (FIG. 11C).

[2] = Stability study under accelerated degradation conditions, related substances; details: 40° C. and 75% relative humidity
Method: A stability study was performed to determine the compatibility of the combined APIs under accelerated degradation conditions. Separate control samples of micronized cromolyn sodium (Sample A) and micronized ibuprofen (Sample B) were included in the study to be used as a comparator to the blend of Cromolyn/Ibuprofen (Sample C). The study was performed at 40° C. and 75% relative humidity. Measurements were taken at time 0, 1 month, 2 months, and 3 months.

[3] = Solubility and dispersibility seen in PSD by wet dispersion
From the text: The micronization may be performed on coarse ibuprofen using an air-jet mill or similar apparatus, such as a grinder or a mill. Other methods to micronize the ibuprofen include milling, bashing, cutting, or crushing. For example, two batches were micronized with an air-jet mill using a feed gas pressure of about 45 psi and a grinding pressure of about 45 psi. One batch was micronized a second time under the same conditions. Optionally, the ibuprofen may be micronized more than once. After micronization, particle size distribution was performed on the micronized ibuprofen by wet dispersion.
as §2

[4] = Particle size determination (PSD) of coarse ibuprofen; details: for D10 / D50 / D90: Effect of Dispersant
From the text: (§3) Coarse ibuprofen was characterized using PSD, PXRD, and GVS. […]
The average particle size determinations are illustrated in FIG. 5. The parameters and results were as follows: concentration 0.0406% Vol; span 1.493; uniformity 0.459; specific surface area 0.239 m^2/g; surface weighted mean […] 25.136 μm; and vol. weighted mean D[4,3] 62.020 μm.

[5] = Moisture content by simultaneous thermal analyzer (STA); details: for % Moisture content / Enthalpy change: by STA
Method: as §2

[6] = Powdered x-ray diffraction (PXRD)
From the text: as §1, with “(GVS). The methods determined that coarse ibuprofen was crystalline and non-hygroscopic. The results are summarized in Example 3.” for “(GVS).”
as §3

[7] = average particle size determination, FIG. 5

Compound: CC(C)Cc1ccc(C(C)C(=O)O)cc1 (stereo not shown) [micronized ibuprofen, ibuprofen]
- weight gain upon exposure to moisture (moisture adsorbed on the surface) ([1]; listed as Micronize ibuprofen): ~3%
- weight gain upon exposure to moisture (moisture adsorbed on the surface) ([1]; listed as Micronized ibuprofen): ~3%
- Individual Related Substances ≥ 0.5%, RRT 0.93, ibuprofen ([2]; 1 month): 0.07%
- Individual Related Substances ≥ 0.5%, RRT 1.11, ibuprofen ([2]; 1 month): 0.05%
- Total Impurities, ibuprofen ([2]; 1 month): 0.1%
- Individual Related Substances ≥ 0.5%, RRT 0.93, ibuprofen ([2]; 2 months): 0.07%
- Individual Related Substances ≥ 0.5%, RRT 1.11, ibuprofen ([2]; 2 months): <LOQ
- Total Impurities, ibuprofen ([2]; 2 months): 0.1%
- Individual Related Substances ≥ 0.5%, RRT 0.93, ibuprofen ([2]; 3 months): 0.07%
- Individual Related Substances ≥ 0.5%, RRT 1.11, ibuprofen ([2]; 3 months): <LOQ
- Total Impurities, ibuprofen ([2]; 3 months): 0.1%
- Individual Related Substances ≥ 0.5%, RRT 0.93, ibuprofen ([2]; Initial T = 0): 0.07%
- Total Impurities, ibuprofen ([2]; Initial T = 0): 0.1%
- dispersibility in water [3]: not dispersible in water
- solubility in organic solvents [3]: highly soluble in organic solvents
- solubility in surfactant containing aqueous media [3]: soluble in different surfactants containing aqueous media even at low concentrations of the surfactant

Compound: CC(C)Cc1ccc(C(C)C(=O)O)cc1 (stereo not shown) [Batch 1, ibuprofen]
- % Moisture content [5]: 1.19%
- Enthalpy change [5]: 120.5 J/g

Compound: CC(C)Cc1ccc(C(C)C(=O)O)cc1 (stereo not shown) [Batch 2, ibuprofen]
- % Moisture content [5]: 1.14%
- Enthalpy change [5]: 94.4 J/g

Second part, the molecule after the results:

- D10 ([4]; T (Day) 0): 22.586 μm
- D50 ([4]; T (Day) 0): 57.693 μm
- D90 ([4]; T (Day) 0): 108.743 μm
- D10 ([4]; T (Day) 1): 22.401 μm
- D50 ([4]; T (Day) 1): 57.611 μm
- D90 ([4]; T (Day) 1): 108.724 μm
- span [4, 7]: 1.493
- specific surface area [4, 7]: 0.239 m^2/g
- surface weighted mean D[2,3] [4, 7]: 25.136 μm
- uniformity [4, 7]: 0.459
- vol. weighted mean D[4,3] [4, 7]: 62.020 μm
- hygroscopicity [1]: non-hygroscopic
- weight gain upon exposure to moisture (moisture adsorbed on the surface) [1]: < 0.2%
- weight gain upon exposure to moisture (moisture adsorbed on the surface) ([1]; listed as Ibuprofen): < 0.2%
- weight gain upon exposure to moisture (moisture adsorbed on the surface) ([1]; listed as ibuprofen): < 0.2%
- hygroscopicity ([1]; listed as Coarse ibuprofen): non-hydroscopic
- hygroscopicity ([1]; listed as ibuprofen): non-hydroscopic
- % Moisture content [5]: 0.20%
- Enthalpy change [5]: 131.0 J/g
- Inference (crystalline or amorphous) ([5]; from the enthalpy change): Crystalline
- crystallinity [6]: crystalline
Compound: CC(C)Cc1ccc(C(C)C(=O)O)cc1 (stereo not shown) [coarse ibuprofen, ibuprofen]

- Individual Related Substances ≥ 0.5%, cromolyn sodium ([2]; 1 month): 0.11%
- Total Impurities, cromolyn sodium ([2]; 1 month): 0.1%
- Individual Related Substances ≥ 0.5%, cromolyn sodium ([2]; 2 months): 0.11%
- Total Impurities, cromolyn sodium ([2]; 2 months): 0.1%
- Individual Related Substances ≥ 0.5%, cromolyn sodium ([2]; 3 months): 0.11%
- Total Impurities, cromolyn sodium ([2]; 3 months): 0.1%
- Individual Related Substances ≥ 0.5%, cromolyn sodium ([2]; Initial T = 0): 0.11%
- Total Impurities, cromolyn sodium ([2]; Initial T = 0): 0.1%
Compound: O=C(O)c1cc(=O)c2c(OCC(O)COc3cccc4oc(C(=O)O)cc(=O)c34)cccc2o1 [Sample A, cromolyn sodium]

From patent publication US10561612B2, “Powdered formulations of cromolyn sodium and ibuprofen” (AZTherapies, Inc., priority 2017, dated 2020)
